Like-named read-outs stand apart in the source and are kept apart here.
What was measured:
[1] = biological target: T1, BRM (Homo sapiens, UniProt P51531); assay: ATPase catalytic activity of BRM, ADP-Glo in vitro biochemical assay; details: for IC50: 30 nM BRM, 400 μM ATP; for Ratio* (BRG1 IC50 (μM) divided by BRM IC50 (μM)): selectivity ratio BRG1 IC50 / BRM IC50
T1 construct: made in house; host or cells: High Five insect cells
In short: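 ADP-Glo luminescence, after depletion of leftover ATP and conversion of ADP, reported the activity. The 1 h room-temperature reaction held 400 μM ATP, 20 nM salmon sperm DNA and 30 nM BRM in 20 mM Tris pH 8, 20 mM MgCl2, 50 mM NaCl, 0.1% Tween-20, 1 mM DTT.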

[2] = biological target: T2, BRG-1 (Homo sapiens, UniProt P51532); assay: ATPase catalytic activity of BRG-1, ADP-Glo in vitro biochemical assay; details: 30 nM BRG-1, 400 μM ATP, read-out: BRG1 IC50
T2 construct: made in house; host or cells: High Five insect cells
T2 sequence (P51532 whole entry): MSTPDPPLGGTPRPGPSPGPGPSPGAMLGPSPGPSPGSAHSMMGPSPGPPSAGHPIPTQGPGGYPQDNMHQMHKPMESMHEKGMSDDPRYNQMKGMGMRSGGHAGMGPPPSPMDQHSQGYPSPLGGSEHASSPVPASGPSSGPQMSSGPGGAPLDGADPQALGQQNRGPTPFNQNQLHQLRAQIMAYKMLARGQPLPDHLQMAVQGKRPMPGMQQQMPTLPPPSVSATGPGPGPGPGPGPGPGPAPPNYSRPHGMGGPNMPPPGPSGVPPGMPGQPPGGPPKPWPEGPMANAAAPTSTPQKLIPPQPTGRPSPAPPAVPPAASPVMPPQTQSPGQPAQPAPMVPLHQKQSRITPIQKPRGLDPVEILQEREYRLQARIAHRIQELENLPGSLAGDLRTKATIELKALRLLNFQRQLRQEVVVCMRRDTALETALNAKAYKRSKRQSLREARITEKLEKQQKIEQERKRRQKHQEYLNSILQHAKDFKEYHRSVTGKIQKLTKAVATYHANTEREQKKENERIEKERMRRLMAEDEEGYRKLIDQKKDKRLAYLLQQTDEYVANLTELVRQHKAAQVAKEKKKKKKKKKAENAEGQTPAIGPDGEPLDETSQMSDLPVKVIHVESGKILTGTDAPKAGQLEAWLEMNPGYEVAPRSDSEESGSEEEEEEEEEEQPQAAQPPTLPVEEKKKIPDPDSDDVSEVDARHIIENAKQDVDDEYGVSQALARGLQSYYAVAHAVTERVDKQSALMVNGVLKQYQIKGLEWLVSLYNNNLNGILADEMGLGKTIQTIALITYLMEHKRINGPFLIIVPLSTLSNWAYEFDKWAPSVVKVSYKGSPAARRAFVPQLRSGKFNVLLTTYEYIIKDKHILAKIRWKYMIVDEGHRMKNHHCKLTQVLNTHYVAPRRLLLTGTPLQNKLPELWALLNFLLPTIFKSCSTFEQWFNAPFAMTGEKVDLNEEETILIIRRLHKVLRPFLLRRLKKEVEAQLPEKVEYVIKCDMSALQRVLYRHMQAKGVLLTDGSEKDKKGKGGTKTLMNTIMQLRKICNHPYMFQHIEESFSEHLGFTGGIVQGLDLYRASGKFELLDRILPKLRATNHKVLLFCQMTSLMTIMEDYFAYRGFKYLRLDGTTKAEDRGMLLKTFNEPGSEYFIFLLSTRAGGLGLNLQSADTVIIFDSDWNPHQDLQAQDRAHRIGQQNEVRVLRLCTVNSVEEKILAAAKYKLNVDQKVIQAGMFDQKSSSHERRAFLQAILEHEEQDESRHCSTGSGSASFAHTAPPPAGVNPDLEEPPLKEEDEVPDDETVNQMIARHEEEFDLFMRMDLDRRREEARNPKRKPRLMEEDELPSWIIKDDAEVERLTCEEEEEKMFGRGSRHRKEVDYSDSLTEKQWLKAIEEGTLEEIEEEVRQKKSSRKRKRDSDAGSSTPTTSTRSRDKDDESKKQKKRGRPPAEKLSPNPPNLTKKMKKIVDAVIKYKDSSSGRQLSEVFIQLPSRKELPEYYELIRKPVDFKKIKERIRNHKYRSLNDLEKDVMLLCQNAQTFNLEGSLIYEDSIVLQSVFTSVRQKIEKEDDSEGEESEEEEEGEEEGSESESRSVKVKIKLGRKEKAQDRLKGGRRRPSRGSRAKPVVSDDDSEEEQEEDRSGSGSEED
In short: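 In this in vitro format, BRG-1 hydrolysis product ADP is detected via a two-step ADP-Glo workup (ATP removal, then ADP-to-ATP conversion with luciferase detection) followed by a luminescence read.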

[3] = ATPase catalytic activity, ADP-Glo

T1 sequence (P51531 whole entry): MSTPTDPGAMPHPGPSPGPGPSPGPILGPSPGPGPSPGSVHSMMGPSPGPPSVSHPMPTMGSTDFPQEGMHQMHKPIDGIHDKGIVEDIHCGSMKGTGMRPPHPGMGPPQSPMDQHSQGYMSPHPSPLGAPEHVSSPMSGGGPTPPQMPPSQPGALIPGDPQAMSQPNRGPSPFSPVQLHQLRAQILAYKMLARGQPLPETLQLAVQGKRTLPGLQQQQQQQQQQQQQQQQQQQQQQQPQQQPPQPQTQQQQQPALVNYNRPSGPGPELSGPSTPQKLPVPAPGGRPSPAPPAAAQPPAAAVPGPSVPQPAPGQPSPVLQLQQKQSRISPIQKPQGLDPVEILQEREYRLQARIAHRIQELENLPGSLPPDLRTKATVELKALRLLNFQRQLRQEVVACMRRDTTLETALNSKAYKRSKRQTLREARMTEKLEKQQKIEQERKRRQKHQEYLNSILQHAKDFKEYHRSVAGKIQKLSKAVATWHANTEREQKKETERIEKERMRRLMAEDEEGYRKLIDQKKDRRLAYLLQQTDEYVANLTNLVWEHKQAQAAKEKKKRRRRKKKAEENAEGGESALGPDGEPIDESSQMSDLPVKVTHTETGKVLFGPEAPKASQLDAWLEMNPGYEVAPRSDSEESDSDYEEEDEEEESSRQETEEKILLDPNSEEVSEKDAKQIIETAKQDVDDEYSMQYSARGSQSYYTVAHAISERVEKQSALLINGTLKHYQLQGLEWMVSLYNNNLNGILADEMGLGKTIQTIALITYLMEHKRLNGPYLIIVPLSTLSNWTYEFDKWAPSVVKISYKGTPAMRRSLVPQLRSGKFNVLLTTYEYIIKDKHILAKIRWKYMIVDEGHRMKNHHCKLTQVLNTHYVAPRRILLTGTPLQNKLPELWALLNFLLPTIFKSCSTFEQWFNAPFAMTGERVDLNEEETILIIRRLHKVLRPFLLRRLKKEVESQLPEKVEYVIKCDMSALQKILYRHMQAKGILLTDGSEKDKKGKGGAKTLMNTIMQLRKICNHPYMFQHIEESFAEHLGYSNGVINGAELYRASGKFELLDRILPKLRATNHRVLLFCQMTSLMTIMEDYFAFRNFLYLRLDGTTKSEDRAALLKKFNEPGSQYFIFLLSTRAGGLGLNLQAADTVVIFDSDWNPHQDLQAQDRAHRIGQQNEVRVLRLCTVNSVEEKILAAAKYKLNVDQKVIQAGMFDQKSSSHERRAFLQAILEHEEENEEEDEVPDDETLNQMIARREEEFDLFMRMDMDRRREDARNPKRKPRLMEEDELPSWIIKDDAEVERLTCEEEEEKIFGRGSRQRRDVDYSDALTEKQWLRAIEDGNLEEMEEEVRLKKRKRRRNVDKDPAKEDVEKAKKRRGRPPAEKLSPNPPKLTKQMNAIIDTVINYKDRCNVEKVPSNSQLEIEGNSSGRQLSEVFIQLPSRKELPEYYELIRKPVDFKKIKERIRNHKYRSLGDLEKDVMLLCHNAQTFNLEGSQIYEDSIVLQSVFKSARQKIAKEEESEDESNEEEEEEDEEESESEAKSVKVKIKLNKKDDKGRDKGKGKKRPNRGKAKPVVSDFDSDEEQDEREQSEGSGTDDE

| SMILES | IC50 ([1]; ADP-Glo ATPase assay) | Ratio* (BRG1 IC50 (μM) divided by BRM IC50 (μM)) [1] | IC50 ([2]; ADP-Glo ATPase assay) | IC50 [1, 3] | Ratio* ([1]; ratio of BRG1 IC50 to BRM IC50) | IC50 [2, 3] | Ratio* ([1]; ratio BRG1 IC50 / BRM IC50) |
| --- | --- | --- | --- | --- | --- | --- | --- |
| COCCN1CCOc2c(-c3ccc4cnc(CNC(=O)c5ccc6c(c5)S(=O)(=O)CCOC6)cc4n3)cccc21 [Compound 172] | 9.2 nM | 11.42 | 105 nM | – | – | – | – |
| COCCN(C)c1cccc(-c2ccc3cnc(CNC(=O)c4ccc(C(F)F)c(S(C)(=O)=O)c4)cc3n2)n1 [Compound 110] | 20.9 nM | 19.51 | 407 nM | – | – | – | – |
| CC(F)(F)c1ccc2c(c1)N(c1ccc3cnc(CNC(=O)c4ccc5c(c4)S(=O)(=O)CCOC5)cc3n1)CCO2 [Compound 682] | – | – | – | 10.3 nM | 15.88 | 164 nM | – |
| C[C@H]1COCc2ccc(C(=O)NCc3cc4nc(-c5cccc(C6CC6)n5)cnc4cn3)cc2S1(=O)=O [Compound 443] | – | – | – | 34.7 nM | 36.53 | 1270 nM | – |
| O=C(NCc1cc2nc(N3CCOc4ccc([C@@H]5CC5(F)F)nc43)ccc2cn1)c1ccc2c(c1)S(=O)(=O)CCOC2 [Compound 702] | – | – | – | 10.2 nM | 93.83 | 960 nM | – |
| COc1cc(C2CC2)ccc1-c1ccc2cnc(CNC(=O)c3ccc4c(c3)S(=O)(=O)CCOC4)cc2n1 [Compound 387] | – | – | – | 68.3 nM | 10.65 | 727 nM | – |
| CO[C@@H]1C[C@H]1N(C)c1cccc(-c2ccc3cnc(CNC(=O)c4ccc5c(c4)S(=O)(=O)[C@@H](C)COC5)cc3n2)n1 [Compound 672] | – | – | – | 15.2 nM | 13.70 | 209 nM | – |
| COc1ncc(F)c2c1CCCN2c1ccc2cnc(CNC(=O)c3ccc4c(c3)S(=O)(=O)CCOC4)cc2n1 [Compound 825] | 31.9 nM | – | 246 nM | – | – | – | 7.70 |
| Cc1ccc(C(=O)NCc2cc3nc(-c4cncc(C5CC5)n4)ccc3cn2)cc1S(C)(=O)=O [Compound 300] | 64.7 nM | 11.32 | 733 nM | – | – | – | – |
| O=C(NCc1cc2nc(N3CCCc4ncccc43)ccc2cn1)c1ccc2c(c1)S(=O)(=O)CCOC2 [Compound 156] | 366 nM | 5.25 | 1920 nM | – | – | – | – |
| CN(c1cccc(-c2ccc3cnc(CNC(=O)c4ccc5c(c4)S(=O)(=O)CCOC5)cc3n2)n1)C1CC1 [Compound 94] | 32 nM | 9.02 | 288 nM | – | – | – | – |
| COCCN(c1cccc(-c2ccc3cnc(CNC(=O)c4ccc5c(c4)S(=O)(=O)CCOC5)cc3n2)n1)C1CCC1 [Compound 374] | – | – | – | 8.8 nM | 8.04 | 70.7 nM | – |
| CO[C@@H](C)c1cnc2c(c1)CCCN2c1ccc2cnc(CNC(=O)c3ccc4c(c3)S(=O)(=O)CCOC4)cc2n1 [Compound 607] | – | – | – | 44.6 nM | 15.74 | 702 nM | – |
| CC(F)(F)CN1CCOc2c(-c3ccc4cnc(CNC(=O)c5ccc6c(c5)S(=O)(=O)CCOC6)cc4n3)cccc21 [Compound 479] | – | – | – | 48.3 nM | 3.92 | 189 nM | – |
| O=C(NCc1cc2nc(N3CCOc4cc(C5CC5)ccc43)ccc2cn1)c1ccc2c(c1)S(=O)(=O)CCOC2 [Compound 481] | – | – | – | 13.2 nM | 8.58 | 113 nM | – |
| CN(C)c1cnc2c(c1)OCCN2c1ccc2cnc(CNC(=O)c3ccc4c(c3)S(=O)(=O)CCOC4)cc2n1 [Compound 763] | 5.3 nM | – | 45.4 nM | – | – | – | 8.52 |
| Cc1ccc2c(n1)N(c1ccc3cnc(CNC(=O)c4ccc5c(c4)S(=O)(=O)CCCO5)cc3n1)CCC2 [Compound 538] | – | – | – | 114 nM | 14.67 | 1670 nM | – |
| CCOc1ccnc2c1CCCN2c1ccc2cnc(CNC(=O)c3ccc4c(c3)S(=O)(=O)CCOC4)cc2n1 [Compound 573] | – | – | – | 7.9 nM | 5.56 | 43.8 nM | – |
| C[C@@H]1CN(c2cccc(-c3ccc4cnc(CNC(=O)c5ccc6c(c5)S(=O)(=O)CCN(C)C6)cc4n3)n2)C[C@H](C)O1 [Compound 51] | 34.9 nM | 5.74 | 200 nM | – | – | – | – |
